Like-named read-outs stand apart in the source and are kept apart here.
What was measured:
[1] = Metabolic stability in rat liver microsomes; format: in vitro ADME; details: pH 7.4; rat liver microsomes 0.5 mg/mL, 1 μM compound, NADPH 1 mM, 0-60 min; read-out: half-life/(T1/2, min)
Procedure: Test Example 2. Study on the Metabolic Stability of the Compounds of the Present Disclosure in Rat Liver Microsomes
The purpose of this experimental study is to study the metabolic stability of the compounds of the present disclosure in rat liver microsomes.
The test compounds were co-incubated with rat liver microsomes, and the coenzyme NADPH was added to initiate the reaction. At 0, 5, 15, 30, and 60 minutes, 20 μL of incubation solution was taken out and transferred to 200 μL of acetonitrile containing internal standard to stop the reaction. After protein precipitation, it was centrifuged at 3,700 rpm for 10 minutes. The supernatant was taken and analyzed by LC-MS/MS method after being diluted at 1:1 with water. According to the elimination half-life of the test compound in the incubation system, the in vitro clearance rate was calculated. Midazolam was used as the internal reference compound and incubated for 2 copies in parallel.
The ratio of analyte/internal standard peak area (Aanalyte/AIS) was obtained from the instrument, and the remaining percentage (% Control) was calculated as the ratio of Aanalyte/AIS in the non-zero time point sample to the zero time point sample. Ln (% Control) versus incubation time was plotted and subjected to a linear fitting. The clearance constant (k, min-) and clearance half-life (T1/2, min) of the test compounds were calculated by the following equations.
[formula] 4. Experimental Results

AT1R = biological target: T1, AT1R (Homo sapiens, UniProt P30556); assay: Antagonistic activity on AT1R, same method with Tb-labeled-AT1R cells; format: binding
T1 construct: Tb (terbium) label on the receptor; expressed in transfected cells
T1 sequence (P30556 1-359): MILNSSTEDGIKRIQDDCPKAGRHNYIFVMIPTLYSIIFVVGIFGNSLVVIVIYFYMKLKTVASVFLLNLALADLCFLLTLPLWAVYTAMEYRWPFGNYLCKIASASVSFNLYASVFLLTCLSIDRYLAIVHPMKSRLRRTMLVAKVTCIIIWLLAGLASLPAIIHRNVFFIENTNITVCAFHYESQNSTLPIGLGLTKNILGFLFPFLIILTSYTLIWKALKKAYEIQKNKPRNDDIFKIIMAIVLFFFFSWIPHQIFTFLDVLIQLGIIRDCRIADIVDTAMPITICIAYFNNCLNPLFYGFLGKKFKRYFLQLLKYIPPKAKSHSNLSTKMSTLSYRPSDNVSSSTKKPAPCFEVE

human AT2R = biological target: T2, human AT2R (Homo sapiens, UniProt P50052); assay: Antagonistic activity on the binding of human AT2R ligand (Tag-lite HTRF ligand binding, Tb-labeled-AT2R cells); details: red agonist fluorescent ligand, 1 hour room temperature
T2 construct: Tb (terbium) label on the receptor; expressed in transfected cells
T2 sequence (P50052 1-363): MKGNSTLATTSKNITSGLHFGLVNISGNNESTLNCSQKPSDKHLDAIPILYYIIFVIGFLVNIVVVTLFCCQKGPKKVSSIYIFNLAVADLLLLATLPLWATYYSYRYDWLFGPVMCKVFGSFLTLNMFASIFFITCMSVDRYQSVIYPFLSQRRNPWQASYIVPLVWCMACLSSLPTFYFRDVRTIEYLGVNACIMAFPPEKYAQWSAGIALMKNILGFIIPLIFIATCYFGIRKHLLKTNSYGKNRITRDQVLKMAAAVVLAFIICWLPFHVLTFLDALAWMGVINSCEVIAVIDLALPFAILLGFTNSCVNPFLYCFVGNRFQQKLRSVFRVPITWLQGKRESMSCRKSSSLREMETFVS
Procedure: Test Example 1 Test of the Antagonistic Activity of the Compound of the Present Disclosure on the Binding of Human AT2R Ligand
Angiotensin II Type 2 Receptor (AT2R) is involved in neuron differentiation and regeneration, cell proliferation and angiogenesis, and maintenance of bone mass. […] The following method uses the AT2 ligand binding test to study the degree of antagonism of the compounds of the present disclosure to AT2R.
2. Reagent Preparation • (1) 10 mM of angiotensin II human: 10 mg of Angiotensin II human (purity 99.09%) was dissolved in 0.947 mL of deionized water, aliquoted and stored at −80° C.; • (2) Preparation of compound stock solution
3. […] 4. Experimental Results

[2] = Pharmacokinetics in SD rats, intravenous injection or intragastric administration; format: in vivo; details: for half-life / MRT / bioavailability / Cmax: male, Sprague-Dawley, rat, plasma; for half-life: read-out: half-life T1/2 (converted); for MRT: read-out: residence time MRT; for bioavailability: read-out: bioavailability F; for Cmax: read-out: drug concentration in blood, Cmax
Excerpt: Test Example 3. Study on Oral Pharmacokinetics of the Compounds of the Present Disclosure in SD Rats
SD rats were taken as the test animals. The LC/MS/MS method was used to determine the intravenous injection or intragastric administration of the compounds of the present disclosure in rats, and to determine the drug concentration in plasma at different time points to study the pharmacokinetic characteristics of the compounds of the present disclosure in rats.
Experimental drugs: Olodanrigan, compounds 12, 14, 15 and 16 of the present disclosure;
Animals: 30 healthy adult Sprague Dawley (SD) male rats, purchased from Weitong Lihua Experimental Animal Technology Co. Ltd., production license number: 11400700271077.
An appropriate amount of samples were weighed, and added with DMA, solutol HS 15 (30%, w/v) and normal saline respectively, and then subjected to ultrasound and filtered through PTFE membrane to make a 0.2 mg/mL solution.
An appropriate amount of samples were weighed, added with 0.5% sodium carboxymethyl cellulose (CMC-Na) (containing 0.5% Tween 80), and ultrasonically prepared into a 1 mg/mL suspension. […]
About 0.2 mL of blood was collected from the jugular vein before administration and at 0.083 hours, 0.25 hours, 0.5 hours, 1 hour, 2 hours, 4 hours, 8 hours, 12 hours, and 24 hours after administration, and heparin sodium was used for anticoagulation. The blood samples were collected on ice and centrifuged to separate the plasma (centrifugation conditions: 1500 g, 10 minutes). The collected plasma was stored at −40 to −20° C. before analysis.
10 μL of plasma sample was taken and added with 400 μL of acetonitrile (comprising internal standard working solution which contained verapamil 5 ng/mL and glibenclamide 50 ng/mL). It was vortexed for 10 minutes, centrifuge at 3700 rpm for 10 minutes. 70 μL of the supernatant was taken and added with 70 μL of water, and vortexed for 10 minutes. 2 μL of the mixed solution was taken and injected into LC-MS/MS for sample analysis.

[3] = oral (3 mg/kg) versus injection (1 mg/kg)
[4] = 3 mg/kg, oral (mg/kg), dose not given
[5] = oral (mg/kg), dose figure not given, versus injection (1 mg/kg)

Row | Structure (SMILES) | half-life at 1 μM [1] | IC50 (AT1R) | IC50 (human AT2R) | area under curve AUO0-∞ ([2]; injection (1 mg/kg)) | half-life ([2]; iv, injection (1 mg/kg)) | MRT ([2]; iv, injection (1 mg/kg)) | bioavailability [2, 3] | Cmax ([2]; oral (3 mg/kg)) | half-life ([2]; oral (3 mg/kg)) | MRT ([2]; oral (3 mg/kg)) | area under curve AUO0-∞ ([2]; oral (3 mg/kg)) | Cmax [2, 4] | half-life [2, 4] | MRT [2, 4] | bioavailability [2, 5] | area under curve AUO0-∞ ([2]; oral (mg/kg), dose not given)
1 | CN(C(=O)C(c1ccccc1)c1ccccc1)c1ccc(N2CCCOc3ccc(F)cc32)cc1C(=O)O [Compound 4, 5-(7-fluoro-3,4-dihydrobenzo[b][1,4]oxazepine-5(2H)-yl)-2-(N-methyl-2,2-diphenylacetamido)benzoic acid] | 185 min | > 10 µM | 37 nM |  |  |  |  |  |  |  |  |  |  |  |  | 
2 | CN(C(=O)C(c1ccccc1)c1ccccc1)c1cnc(N2CCCOc3ccc(F)cc32)cc1C(=O)O [Compound 5, 2-(7-fluoro-3,4-dihydrobenzo[b][1,4]oxazepine-5(2H)-yl)-5-(N-methyl-2,2-diphenylacetamido)isonicotinic acid] |  | > 10 µM | 10 nM |  |  |  |  |  |  |  |  |  |  |  |  | 
3 | CN(C(=O)C(c1ccccc1)c1ccccc1)c1cnc(N2CCCOc3cc(F)c(F)cc32)cc1C(=O)O [Compound 6, 2-(7,8-difluoro-3,4-dihydrobenzo[b][1,4]oxazepine-5(2H)-yl)-5-(N-methyl-2,2-diphenylacetamido)isonicotinic acid] |  | > 10 µM | 26 nM |  |  |  |  |  |  |  |  |  |  |  |  | 
4 | CN(C(=O)C(c1ccccc1)c1ccccc1)c1ccc(N2CCCOc3ccc(F)cc32)nc1C(=O)O [Compound 8, 6-(7-fluoro-3,4-dihydrobenzo[b][1,4]oxazepine-5(2H)-yl)-3-(N-methyl-2,2-diphenylacetamido)picolinic acid] |  | > 10 µM | 28 nM |  |  |  |  |  |  |  |  |  |  |  |  | 
5 | O=C(O)c1cc(N2CCCOc3ccc(F)cc32)ncc1-c1nc2ccccc2o1 [Compound 12, 5-(benzo[d]oxazol-2-yl)-2-(7-fluoro-3,4-dihydrobenzo[b][1,4]oxazepine-5(2H)-yl)isonicotinic acid] | 288 min |  |  | 16200 ± 3530 ng·h/mL | 8.1 ± 2.1 h | 7.3 ± 1.5 h | 83.1% | 8650 ± 6020 ng/mL | 4.7 ± 0.3 h | 6.1 ± 0.5 h | 40400 ± 14272 ng·h/mL |  |  |  |  | 
6 | O=C(O)c1cc(N2CCCOc3ccc(F)cc32)ncc1-c1nc2cc(F)ccc2o1 [Compound 14, 2-(7-fluoro-3,4-dihydrobenzo[b][1,4]oxazepine-5(2H)-yl)-5-(5-fluorobenzo[d]oxazol-2-yl)isonicotinic acid] | 600 min |  |  | 13800 ± 1370 ng·h/mL | 4.7 ± 0.4 h | 4.5 ± 0.2 h | 105% | 14300 ± 5130 ng/mL | 3.6 ± 0.2 h | 4.7 ± 0.3 h | 43400 ± 11173 ng·h/mL |  |  |  |  | 
7 | O=C(O)c1cc(N2CCCOc3ccc(F)cc32)ncc1-c1nc2ccc(F)cc2o1 [Compound 15, 2-(7-fluoro-3,4-dihydrobenzo[b][1,4]oxazepine-5(2H)-yl)-5-(6-fluorobenzo[d]oxazol-2-yl)isonicotinic acid] | 160 min |  |  | 12100 ± 751 ng·h/mL | 4.5 ± 0.4 h | 4.5 ± 0.4 h | 89.9% | 7050 ± 2640 ng/mL | 4.2 ± 0.4 h | 5.2 ± 0.4 h | 32400 ± 6514 ng·h/mL |  |  |  |  | 
8 | N#Cc1ccc2nc(-c3cnc(N4CCCOc5ccc(F)cc54)cc3C(=O)O)oc2c1 [Compound 16, 5-(6-cyanobenzo[d]oxazol-2-yl)-2-(7-fluoro-3,4-dihydrobenzo[b][1,4]oxazepine-5(2H)-yl)isonicotinic acid] | 598 min |  |  | 20800 ± 1740 ng·h/mL | 3.3 ± 0.2 h | 3.2 ± 0.3 h |  |  |  |  |  | 5250 ± 315 ng/mL | 3.7 ± 0.4 h | 5.5 ± 0.4 h | 41.3% | 25800 ± 6100 ng·h/mL
9 | COc1ccc2c(c1OCc1ccccc1)C[C@@H](C(=O)O)N(C(=O)C(c1ccccc1)c1ccccc1)C2 [olodanrigan, reference compound] | 96.3 min | > 10 µM |  | 1230 ± 96 ng·h/mL | 1.6 ± 0.3 h | 0.92 ± 0.16 h |  |  |  |  |  | 470 ± 197 ng/mL | 1.5 ± 0.3 h | 2.6 ± 1 h | 12.1% | 1483 ± 715 ng·h/mL
